# Measured values published in publication PMC11990879, “Anticandidal Activity of Lipopeptides Containing an LL-37-Derived Peptide Fragment KR12” (Molecules, 2025).
# Marks after values point to notes of the source that are not given here. Where a SMILES comes first, the peptide text is derived from it. The star is where a group is joined. Myristoyl = CCCCCCCCCCCCCC(=O)*; Lauroyl = CCCCCCCCCCCC(=O)*
# How the values were obtained:
# [1] = tested on: Candida strains (C. albicans, C. glabrata, C. lipolytica, C. tropicalis); type: cell-based; details: 48 h
# Experimental: (§1) Fungal strains were purchased from the Polish Collection of Microorganisms (Polish Academy of Science, Wroclaw, Poland). Four reference strains of Candida (C. albicans ATCC 10231, C. glabrata ATCC 15126, C. lypolytica PCM 2680, and C. tropicalis PCM 2680) were cultured on the Dextrose Sabouraud Agar (DSA, Neogen, Lansing, MI, USA). Before performing the assays, the fungi were cultured in a Sabouraud dextrose broth (DSB, Neogen, Lansing, MI, USA) for 48 h under aerobic conditions at 25 °C. Afterward, the fungal cultures were centrifuged (2500 rpm, 10 min) and resuspended in the appropriate liquid medium for appropriate inoculums for the performed assays.
# The strains cultured described in Section 4.1 were suspended in the Roswell Park Memorial Institute 1640 Medium (RPMI, Sigma-Aldrich, St. Louis, MO, USA) at an initial inoculum of ca. 5 × 10^3 CFU/mL. The stock solutions (1024 mg/L) of tested compounds in RPMI were added to 96-well polystyrene plates and diluted serially to well no. 10, leaving wells 11 and 12 for fertility and sterility controls. The tested Candida strains were exposed to graded concentrations (range 0.5–256 mg/L) of the lipopeptides and conventional antifungals (benzalkonium chloride, fluconazole, and nystatin) for 48 h under aerobic conditions at 25 °C. After incubation, the results were read visually.
# Then the results were read visually. Both MIC as well as the MFC assays were performed threetimes on three different days.
# human red blood cells = details: cited from earlier work
# Source text: Table 2 Minimum inhibitory concentrations (MIC) and minimum fungicidal concentrations (MFC) determined for peptides and reference antifungals [g/L]. The highest antimicrobial activity is marked in green, medium values in yellow, while the weakest antifungal activity is marked in red. Minimum hemolytic concentration (MHC5%—causing hemolysis of 5% of human red blood cells) determined in previous stu | column: MHC5%
# [2] = tested on: Staphylococcus aureus biofilm; details: previous study; ref [21]; cited from earlier work
# Source text: Lipidation has proven to be an effective strategy for improving the microbiological properties of the KR12-NH2 peptide. […] The influence of the structure of substituted fatty acids as well as the lipidation pattern was noticed. Among derivatives containing linear fatty acid residues, an analog with octanoic acid turned out to be the most promising antibacterial agent. The C8-KR12-NH2 peptide (compound IV) inhibited the growth of both Gram-p ...
# [3] = tested on: C. albicans biofilms cultured on polystyrene; type: cell-based, Candida albicans; details: biofilms cultured on polystyrene
# Experimental: as §1
# Fungal suspensions in DSB were added to the wells at initial inoculums of ca. 5 × 10^6 CFU/mL and incubated under aerobic conditions, at 25 °C for 24 h, 48 h, and 72 h, in order to grow candidal biofilms of different maturity. After the appropriate time of incubation, the wells were washed with phosphoric buffered (PBS), and fresh RPMI medium supplemented with antifungals and the lipopeptides at graded concentrations (range […]) were added. The fungal biofilms were exposed to the compounds for 24 h (aerobic conditions, 25 °C). After the exposure to antifungals, the content of the wells was aspirated and a 0.01% solution of resazurin (Sigma-Aldrich, St. Louis, MO, USA) in DSB was added. Resazurin (blue) was applied as a cell viability reagent, which upon contact with living cells is reduced to a pink resorufin. The samples with the dye were incubated for 1 h at 25 °C and the absorbance was measured at 570 and 600 nm with a microplate reader (Thermo Fisher Scientific, Waltham, MA, USA). The assays were performed four times on four different days. The results are presented as the means of the measured percentage of metabolic activity (MA) of fungi in the well when compared with positive (sample with Candida in DSB) and negative controls (pure DSB), which were taken as 100% and 0%, respectively. The MA of Candida in the samples was measured according to the following formula:MA(%) = (ΔAbs of sample − ΔAbs of negative control)/(ΔAbs of positive control − ΔAbs of negative control);(1) ΔAbs = absorbance at 570 nm − absorbance at 600 nm.(2)
# The MBEC was taken as the lowest concentration of antifungal which allowed us to reduce the metabolism of fungal cells to 10% (or less) of the positive control.
Compound,"MIC, range over the tested strains [1]",MHC5% (minimum hemolytic concentration causing hemolysis of 5% of human red blood cells) (human red blood cells),MBEC against Staphylococcus aureus biofilm [2],MBEC 24 h [3],MBEC 48 h [3],MBEC 72 h [3]
"CCCCCCCCCCCC(=O)N[C@@H](CCCCN)C(=O)N[C@@H](CCCNC(=N)N)C(=O)N[C@H](C(=O)N[C@H](C(=O)N[C@@H](CCC(N)=O)C(=O)N[C@@H](CCCNC(=N)N)C(=O)N[C@H](C(=O)N[C@@H](CCCCN)C(=O)N[C@@H](CC(=O)O)C(=O)N[C@@H](Cc1ccccc1)C(=O)N[C@@H](CC(C)C)C(=O)N[C@@H](CCCNC(=N)N)C(N)=O)[C@@H](C)CC)C(C)C)[C@@H](C)CC [VI, C12-KR12-NH2] (Lauroyl-KRIVQRIKDFLR-NH2)",4 to 8 µg/mL,4 g/L,64 to 256 mg/L,512 mg/L,>512 * mg/L,>512 * mg/L
"CCCCCCCCCCCCCC(=O)N[C@@H](CCCCN)C(=O)N[C@@H](CCCNC(=N)N)C(=O)N[C@H](C(=O)N[C@H](C(=O)N[C@@H](CCC(N)=O)C(=O)N[C@@H](CCCNC(=N)N)C(=O)N[C@H](C(=O)N[C@@H](CCCCN)C(=O)N[C@@H](CC(=O)O)C(=O)N[C@@H](Cc1ccccc1)C(=O)N[C@@H](CC(C)C)C(=O)N[C@@H](CCCNC(=N)N)C(N)=O)[C@@H](C)CC)C(C)C)[C@@H](C)CC [VII, C14-KR12-NH2] (Myristoyl-KRIVQRIKDFLR-NH2)",4 to 8 µg/mL,4 g/L,64 to 256 mg/L,256 mg/L,256 mg/L,512 mg/L
